Measurements: patent US20260092114A1, “TREATMENT OF LUNG CANCER USING A COMBINATION OF AN ANTI-PD-1 ANTIBODY AND ANOTHER ANTI-CANCER AGENT” (Bristol-Myers Squibb Company, priority 2016, published 2026)
Where two headings read alike, the source gives them in different places.

Key:
[1] = test system: metastatic squamous cell NSCLC; conditions: cited from earlier work
NSCLC = conditions: cited from earlier work; for median OS with maintenance therapy: non-squamous NSCLC patients, maintenance after platinum doublet
[2] = CA184022 study of ipilimumab; type: in vivo, human
Description: Similarly, ipilimumab at 10 mg/kg has been safely administered over a 90 minute duration. In the CA184022 study, where ipilimumab was administered up to a dose of 10 mg/kg, on-study drug related hypersensitivity events (Grade 1-2) were reported in 1 (1.4%) subject in the 0.3 mg/kg and in 2 (2.8%) subjects in the 10 mg/kg group. […] Ipilimumab 10 mg/kg monotherapy has also been safely administered as 90 minute infusion in large phase 3 studies in prostate cancer (CA184043) and as adjuvant therapy for stage 3 melanoma (CA184029), with infusion reactions occurring in subjects. Administering 1 mg/kg of ipilimumab represents one-tenth of the 10 mg/kg dose.

[3] = test system: second line or later NSCLC; conditions: 3 mg/kg dose, cited from earlier work
[4] = test system: metastatic squamous cell NSCLC; conditions: CA209063, 117 patients; cited from earlier work
PD-1 = PD-1 (Homo sapiens, UniProt Q15116); set-up: endogenous in cells; conditions: across all doses 0.3 mg/kg to 10 mg/kg, 15 subjects; cited from earlier work
Chain of PD-1 (Q15116 25-288): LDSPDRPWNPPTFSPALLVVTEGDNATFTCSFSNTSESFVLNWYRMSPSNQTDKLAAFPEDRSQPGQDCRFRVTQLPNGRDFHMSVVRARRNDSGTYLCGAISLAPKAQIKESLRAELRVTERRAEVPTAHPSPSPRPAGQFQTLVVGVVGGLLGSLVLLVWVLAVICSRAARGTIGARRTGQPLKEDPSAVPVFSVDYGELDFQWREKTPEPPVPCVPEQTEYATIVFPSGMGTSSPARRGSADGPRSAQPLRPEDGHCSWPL

previously treated NSCLC = conditions: cited from earlier work
[5] = test system: CMV specific memory T cells; assay: CMV re-stimulation assay with human PBMC; type: cell-based; conditions: dose-dependent, versus isotype-matched control
Text: (Topalian S L et al. N Eng J Med 2012; 366: 2443-54.)

[6] = test system: chemotherapy-naive advanced NSCLC; assay: CA209012 Phase 1 study, nivolumab monotherapy and nivolumab plus ipilimumab, first line; type: in vivo, human
Description: Nivolumab monotherapy at 3 mg/kg every 2 weeks has been evaluated in one of several cohorts of chemotherapy-naive patients with advanced NSCLC in study CA209012. Results from this cohort (n=52), including 13 subjects with squamous histology and 39 subjects with non-squamous histology, show an overall response rate (ORR) of 23% and a disease control rate (DCR) of 50%. The PFS rate at 24 weeks is 41%, with a median PFS of 16 weeks. The OS rate at 12 months is 74%, and the median overall survival (OS) is 22.6 months. The majority of responses have been durable, with the median duration of response not reached. In contrast, the median OS for patients with non-squamous histology who receive platinum doublet chemotherapy is 13 months, and for those with squamous histology is 10 months. (Ellis et al. J Clin Oncol (2014) 32:1277-1280.)
The nivolumab plus ipilimumab combination has been also evaluated at several different doses and schedules as first line therapy in patients with advanced NSCLC in CA209012, an ongoing Phase 1 study of nivolumab as monotherapy and in combination with a variety of agents. Early cohorts evaluated 2 different dosing schedules: nivolumab 1 mg/kg+ipilimumab 3 mg/kg, every 3 weeks for four cycles as induction, followed by nivolumab 3 mg/kg every 2 weeks; or nivolumab 3 mg/kg+ipilimumab 1 mg/kg, every 3 weeks for four cycles as induction, followed by nivolumab 3 mg/kg every 2 weeks.
Thus, a third combination cohort was initiated: nivolumab 1 mg/kg+ipilimumab 1 mg/kg every 3 weeks (“1+1”) for 4 cycles as induction, followed by nivolumab 3 mg/kg every 2 weeks as maintenance. This dosing regimen has been much better tolerated with only 13% of subjects experiencing treatment-related AEs leading to discontinuation. […] The ORR is 16%, and the DCR is 58%. The PFS rate at 24 weeks is 55% with a median PFS of 46.1 weeks. The OS rate at 12 months is 63%, and the median OS is not reached. Activity has been observed in patients with both PD-L1 positive (PD-L1+) and PD-L1 negative (PD-L1−) tumors. […]
Analyses based on archival specimens for subjects in CA209012 have shown that subjects with both PD-L1+(IHC greater than or equal to 5%) and PD-L1 tumors may benefit from treatment with nivolumab. […] However, the disease control rate (DCR, CR+PR+SD) was 54% for those with PD-L1+ tumors and 50% for those with PD-L1− tumors. […] Again there was less of a difference in the DCR between the 2 groups: 53% for those with PD-L1+ tumors and 51% for those with PD-L1− tumors. For subjects receiving nivolumab monotherapy, the PFS rate at 24 weeks was 40% and 45% for patients with PD-L1+ and PD-L1− tumors respectively; the median OS was 19.1 months in subjects with PD-L1+ tumors and not reached in subjects with PD-L1− tumors. For subjects receiving nivolumab plus ipilimumab, the median PFS was 21.7 weeks and 12.4 weeks in PD-L1+ and PD-L1− tumors respectively; the median OS was 21.5 months in subjects with PD-L1+ tumors and 19.4 months in subjects with PD-L1− tumors. […]

[7] = nivolumab pharmacokinetics, population pharmacokinetic (PPK) analysis; type: in vivo, human; conditions: for Cavgss Geo. Mean / Cmaxss Geo. Mean / Cminss Geo. Mean: geometric mean (cv %)
Description: Nivolumab monotherapy has been studied in NSCLC patient population in studies CA209003, CA209063, CA209017, and CA209057 with body weight normalized dosing (mg/kg). Nivolumab pharmacokinetics (PK) and exposures of subjects in these studies have been characterized by population pharmacokinetic (PPK) analysis of data collected these studies, together with PK data from several phase 1, 2, and 3 clinical studies of nivolumab monotherapy in solid tumors. Nivolumab PK was determined to be linear, with dose proportional exposures over a dose range of 0.1 to 10 mg/kg. […] Conversely, given the relationship between nivolumab PK and body weight, a flat dose is expected to lead to lower exposures in heavier patients, relative to the exposures in lighter patients.
Table 3 presents summary statistics of the estimated nivolumab steady-state trough, peak and time-averaged concentration (Cminss, Cmaxss, and Cavgss, respectively) in NSCLC subjects receiving 3 mg/kg, together with corresponding statistics of exposures predicted for a flat nivolumab dose of 240 mg. It should be noted that a dose of 240 mg nivolumab is identical to a dose of 3 mg/kg for subjects weighing 80 kg, which is the approximate median body weight of NSCLC subjects in the 3 phase 2 and 3 clinical studies of nivolumab monotherapy in NSCLC patients (CA209017, CA209057, and CA209063).

[8] = nivolumab monotherapy tolerability across clinical studies; type: in vivo
[9] = monotherapy 3 mg/kg every 2 weeks, n=52
[10] = dose 3 (mg/kg), NSCLC subjects, estimated

Compound: CC(=O)O[C@@]12CO[C@@H]1C[C@H](O)[C@@]1(C)C(=O)[C@H](O)C3=C(C)[C@@H](OC(=O)[C@H](O)[C@@H](NC(=O)OC(C)(C)C)c4ccccc4)C[C@@](O)([C@@H](OC(=O)c4ccccc4)[C@H]21)C3(C)C [docetaxel, reference compound]
- median overall survival (OS) ([1]; CA209017): 6 months
- patients with a Grade 3-5 treatment-related event ([1]; CA209017): Fifty-seven
- treatment-related deaths (grade 5 event) ([1]; CA209017): 3
- historical ORR (NSCLC; second-line): 8-10%
- historical median PFS (NSCLC; second-line): approximately 3 months

Compound: Nc1nc2[nH]cc(CCc3ccc(C(=O)N[C@@H](CCC(=O)O)C(=O)O)cc3)c2c(=O)[nH]1 [pemetrexed]
- median OS with maintenance therapy (NSCLC): ~13.9 month

Compound: bevacizumab: monoclonal antibody that blocks vascular endothelial growth factor A (VEGF-A)
- median OS with maintenance therapy (NSCLC): ~13.9 month

Compound: gemcitabine/cisplatin
- alopecia, all grades (NSCLC; human, in vivo): 21%
- fatigue, Grade 3/4 (NSCLC; human, in vivo): 5%
- febrile neutropenia, Grade 3/4 (NSCLC; human, in vivo): 4%
- rate of Grade 3/4 anemia (NSCLC; human, in vivo): 10%
- rate of Grade 3/4 neutropenia (NSCLC; human, in vivo): 27%
- rate of Grade 3/4 thrombocytopenia (NSCLC; human, in vivo): 13%
- vomiting, Grade 3/4 (NSCLC; human, in vivo): 6%

Compound: ipilimumab: fully human, IgG1 monoclonal antibody that blocks the binding of CTLA-4 to its B7 ligands
- drug related hypersensitivity events (Grade 1-2) ([2]; 0.3 mg/kg group): 1.4%
- drug-related hypersensitivity events ([2]; 3 mg/kg group): no drug-related hypersensitivity events
- drug related hypersensitivity events (Grade 1-2) ([2]; 10 mg/kg group): 2.8%
- Grade 3-4 drug-related hypersensitivity events ([2]; across the 3 treatment groups): no Grade 3-4 drug-related hypersensitivity events

Compound: nivolumab
- 24-week PFS rate ([3]; non-squamous): 42%
- objective response rate (ORR) ([3]; non-squamous): 26%
- 24-week PFS rate ([3]; squamous): 45%
- objective response rate (ORR) ([3]; squamous): 22%
- overall response rate (ORR) [4]: 15%
- HR for overall survival vs docetaxel ([1]; CA209017): 0.59
- median overall survival (OS) ([1]; CA209017): 9.6 months
- treatment-related deaths (grade 5 event) ([1]; CA209017): none
- patients with a Grade 3-5 treatment-related event ([1]; in vivo): 6.9%
- mean PD-1 occupancy rate (PD-1): 85%
- mean plateau occupancy (PD-1): 72%
- objective response rates (previously treated NSCLC): ~25%
- progression-free survival (PFS) rate at 24 weeks (previously treated NSCLC): ~45%
- IFN-7 secretion from CMV specific memory T cells [5]: augmented IFN-7 secretion
- PFS rate at 24 weeks ([6]; PD-L1+ tumors): 40%
- disease control rate (DCR, CR+PR+SD) ([6]; PD-L1+ tumors): 54%
- median OS ([6]; PD-L1+ tumors): 19.1 months
- overall response rate (ORR) ([6]; PD-L1+ tumors (IHC >= 5%)): 31%
- PFS rate at 24 weeks ([6]; PD-L1− tumors): 45%
- disease control rate (DCR, CR+PR+SD) ([6]; PD-L1− tumors): 50%
- median OS ([6]; PD-L1− tumors): not reached
- overall response rate (ORR) ([6]; PD-L1− tumors): 15%
- OS rate at 12 months [6, 9]: 74%
- PFS rate at 24 weeks [6, 9]: 41%
- disease control rate (DCR) [6, 9]: 50%
- median PFS [6, 9]: 16 weeks
- median overall survival (OS) [6, 9]: 22.6 months
- overall response rate (ORR) [6, 9]: 23%
- coefficient of variation (cv %) of exposure greater than that of 3 mg/kg dosing ([7]; 240 mg flat vs 3 mg/kg): < 10%
- geometric mean Cminss, Cmaxss and Cavgss with flat dosing higher than with 3 mg/kg ([7]; 240 mg flat vs 3 mg/kg): < 15%
- PK in global and Japanese subjects ([7]; comparison of PK parameters): similar
- Cavgss Geo. Mean [7, 10]: 73.3 (35.6)
- Cmaxss Geo. Mean [7, 10]: 118.9 (31.8)
- Cminss Geo. Mean [7, 10]: 54.7 (41.9)
- PK linearity ([7]; dose range of 0.1 to 10 mg/kg, dose proportional exposures): linear
- Cavgss Geo. Mean ([7]; flat dose 240 (mg), predicted): 82.4 (38.2)
- Cmaxss Geo. Mean ([7]; flat dose 240 (mg), predicted): 133.7 (35.0)
- Cminss Geo. Mean ([7]; flat dose 240 (mg), predicted): 61.5 (44.6)
- half-life ([7]; in vivo): up to 25 days
- safety and tolerability ([8]; Japanese subjects): safe and well tolerated
- dose achieved without reaching the maximum tolerated dose (MTD) ([8]; monotherapy, every two weeks): > 10 mg/kg
- safety and tolerability ([8]; up to a dose level of 10 mg/kg): safe and well tolerated

Compound: paclitaxel/carboplatin
- arthralgia, Grade 3/4 (NSCLC; human, in vivo): 6%
- fatigue, Grade 3/4 (NSCLC; human, in vivo): 5%
- febrile neutropenia, Grade 3/4 (NSCLC; human, in vivo): 3%
- neuropathy, Grade 2/3 (NSCLC; human, in vivo): 18%
